Measurements reported in paper PMC9652372, “Glycolytic flux control by drugging phosphoglycolate phosphatase” (Nature Communications, 2022).
Several values for one entry are separate records, joined by “and”; a condition that tells them apart may be missing. Equal entries are not always repeated.

System: HT1080 cells
Assay: NMR quantification of cellular metabolites; as to 1-Methylnicotinamide (NMR metabolite level): unit not given here; as to Acetic acid (NMR metabolite level): unit not given here; as to Glutathione (NMR metabolite level): unit not given here; as to Glycerol 3-phosphate (NMR metabolite level): unit not given here; as to Glycine (NMR metabolite level): unit not given here; as to L-Lactic acid (NMR metabolite level): unit not given here; as to L-Lysine (NMR metabolite level): unit not given here; as to L-Tyrosine (NMR metabolite level): unit not given here; as to L-Valine (NMR metabolite level): unit not given here; as to Phosphocreatine (NMR metabolite level): unit not given here; as to Pyroglutamate (NMR metabolite level): unit not given here; as to Taurine (NMR metabolite level): unit not given here; as to Tryptophan (NMR metabolite level): unit not given here
Assay type: cell-based, human
Conditions: Exp #1-5

O=C(Nc1ccccc1C(=O)O)c1ccc(Oc2ccc(C(=O)Nc3ccccc3C(=O)O)cc2)cc1 [CP1]
L-Valine (NMR metabolite level) (T3: 3h CP1-treated): 0.007911 and 0.008379 and 0.00757 and 0.007631 and 0.008117
NAD+ (NMR metabolite level) (T3: 3h CP1-treated): 0.001405 and 0.001331 and 0.001634 and 0.001764 and 0.001509
Phosphocreatine (NMR metabolite level) (T3: 3h CP1-treated): 0.002352 and 0.00245 and 0.002668 and 0.002838 and 0.002474
Phosphorylcholine (NMR metabolite level) (T3: 3h CP1-treated): 0.007361 and 0.007078 and 0.008004 and 0.008743 and 0.00688
Pyroglutamate (NMR metabolite level) (T3: 3h CP1-treated): 0.007789 and 0.006927 and 0.008071 and 0.008015 and 0.007303
Pyruvate (NMR metabolite level) (T3: 3h CP1-treated): 0.004887 and 0.004931 and 0.004602 and 0.004755 and 0.004949
Serine (NMR metabolite level) (T3: 3h CP1-treated): 0.006414 and 0.007411 and 0.00707 and 0.007401 and 0.006729
Succinic acid (NMR metabolite level) (T3: 3h CP1-treated): 0.001344 and 0.001543 and 0.001501 and 0.001841 and 0.001207
Taurine (NMR metabolite level) (T3: 3h CP1-treated): 0.006506 and 0.007653 and 0.005636 and 0.009663 and 0.004858
Tryptophan (NMR metabolite level) (T3: 3h CP1-treated): 0.0008552 and 0.0007865 and 0.0009671 and 0.0008436 and 0.0007846
UDP-N-Acetylglucosamine (NMR metabolite level) (T3: 3h CP1-treated): 0.00171 and 0.001573 and 0.002001 and 0.002147 and 0.00178
UDP-glucose (NMR metabolite level) (T3: 3h CP1-treated): 0.0008858 and 0.0008772 and 0.001067 and 0.000997 and 0.0009053
myo-Inositol (NMR metabolite level) (T3: 3h CP1-treated): 0.01161 and 0.01092 and 0.01214 and 0.0158 and 0.01228
1-Methylnicotinamide (NMR metabolite level) (T24: 24h CP1-treated): 0.0006688 and 0.0007226 and 0.00078 and 0.0009117 and 0.0008029
2-Hydroxyglutarate (NMR metabolite level) (T24: 24h CP1-treated): 0.01123 and 0.01613 and 0.01677 and 0.01849 and 0.01776
ADP (NMR metabolite level) (T24: 24h CP1-treated): 0.0007644 and 0.000746 and 0.001198 and 0.0008611 and 0.0008531
ATP (NMR metabolite level) (T24: 24h CP1-treated): 0.0006449 and 0.0006294 and 0.0008357 and 0.0006838 and 0.0006775
Acetic acid (NMR metabolite level) (T24: 24h CP1-treated): 0.003416 and 0.003823 and 0.003426 and 0.003622 and 0.002835
Choline (NMR metabolite level) (T24: 24h CP1-treated): 0.0001911 and 0.0002098 and 0.0002507 and 0.0002533 and 0.0003011
Creatine (NMR metabolite level) (T24: 24h CP1-treated): 0.005637 and 0.005968 and 0.005822 and 0.005673 and 0.00685
Dimethylamine (NMR metabolite level) (T24: 24h CP1-treated): 0.01722 and 0.009371 and 0.01178 and 0.009801 and 0.01006
Fumaric acid (NMR metabolite level) (T24: 24h CP1-treated): 0.0003583 and 0.0003497 and 0.0003621 and 0.0004052 and 0.0003764
Glutathione (NMR metabolite level) (T24: 24h CP1-treated): 0.00848 and 0.006947 and 0.009193 and 0.008991 and 0.00828
Glycerol 3-phosphate (NMR metabolite level) (T24: 24h CP1-treated): 0.005316 and 0.003498 and 0.00363 and 0.003634 and 0.003759
Glycerophosphocholine (NMR metabolite level) (T24: 24h CP1-treated): 0.0005972 and 0.0004662 and 0.000585 and 0.0005065 and 0.0006022
Glycine (NMR metabolite level) (T24: 24h CP1-treated): 0.01727 and 0.01921 and 0.02014 and 0.02011 and 0.0205
L-Alanine (NMR metabolite level) (T24: 24h CP1-treated): 0.006617 and 0.007063 and 0.007716 and 0.007015 and 0.00695
L-Arginine (NMR metabolite level) (T24: 24h CP1-treated): 0.002054 and 0.001585 and 0.002006 and 0.001975 and 0.001807
L-Aspartic acid (NMR metabolite level) (T24: 24h CP1-treated): 0.003296 and 0.003217 and 0.003844 and 0.003495 and 0.003463
L-Glutamic acid (NMR metabolite level) (T24: 24h CP1-treated): 0.03982 and 0.04634 and 0.04538 and 0.047 and 0.04456
L-Glutamine (NMR metabolite level) (T24: 24h CP1-treated): 0.05231 and 0.05105 and 0.05192 and 0.04586 and 0.05314
L-Isoleucine (NMR metabolite level) (T24: 24h CP1-treated): 0.007907 and 0.007716 and 0.008078 and 0.007775 and 0.007703
L-Lactic acid (NMR metabolite level) (T24: 24h CP1-treated): 0.08184 and 0.08616 and 0.0795 and 0.07679 and 0.07736
L-Leucine (NMR metabolite level) (T24: 24h CP1-treated): 0.00676 and 0.006597 and 0.007883 and 0.007192 and 0.007251
L-Lysine (NMR metabolite level) (T24: 24h CP1-treated): 0.002293 and 0.002238 and 0.002674 and 0.002431 and 0.002409
L-Methionine (NMR metabolite level) (T24: 24h CP1-treated): 0.002389 and 0.002331 and 0.002786 and 0.00276 and 0.002509
L-Phenylalanine (NMR metabolite level) (T24: 24h CP1-treated): 0.004013 and 0.003916 and 0.004123 and 0.003976 and 0.003889
L-Threonine (NMR metabolite level) (T24: 24h CP1-treated): 0.01522 and 0.01471 and 0.01638 and 0.01537 and 0.01478
L-Tyrosine (NMR metabolite level) (T24: 24h CP1-treated): 0.004491 and 0.004849 and 0.004652 and 0.004635 and 0.00424
L-Valine (NMR metabolite level) (T24: 24h CP1-treated): 0.007668 and 0.007693 and 0.007744 and 0.00775 and 0.007678
N,N-Dimethylformamide (NMR metabolite level) (T24: 24h CP1-treated): 0.0002389 and 0.0002331 and 0.0002786 and 0.0002533 and 0.0002509
NAD+ (NMR metabolite level) (T24: 24h CP1-treated): 0.002341 and 0.002611 and 0.002619 and 0.002533 and 0.002635
NADH (NMR metabolite level) (T24: 24h CP1-treated): 0.0002389 and 0.0002331 and 0.0003343 and 0.0002786 and 0.0002509
Phosphocreatine (NMR metabolite level) (T24: 24h CP1-treated): 0.001027 and 0.001002 and 0.001198 and 0.001165 and 0.001179
Phosphorylcholine (NMR metabolite level) (T24: 24h CP1-treated): 0.002054 and 0.002168 and 0.002256 and 0.002102 and 0.002158
Pyroglutamate (NMR metabolite level) (T24: 24h CP1-treated): 0.005255 and 0.004942 and 0.004596 and 0.005597 and 0.005796
Pyruvate (NMR metabolite level) (T24: 24h CP1-treated): 0.001983 and 0.001422 and 0.001532 and 0.001798 and 0.001932
Serine (NMR metabolite level) (T24: 24h CP1-treated): 0.005566 and 0.004965 and 0.004429 and 0.005901 and 0.004792
Taurine (NMR metabolite level) (T24: 24h CP1-treated): 0.00922 and 0.008998 and 0.009499 and 0.01099 and 0.01194
Tryptophan (NMR metabolite level) (T24: 24h CP1-treated): 0.0007883 and 0.0007693 and 0.0007243 and 0.0007851 and 0.0008029
UDP-N-Acetylglucosamine (NMR metabolite level) (T24: 24h CP1-treated): 0.003941 and 0.005105 and 0.006156 and 0.005242 and 0.005269
UDP-glucose (NMR metabolite level) (T24: 24h CP1-treated): 0.001935 and 0.001888 and 0.002981 and 0.002533 and 0.002559
myo-Inositol (NMR metabolite level) (T24: 24h CP1-treated): 0.007859 and 0.009021 and 0.01109 and 0.01281 and 0.00961
